Laboratory results as given in ChEMBL document CHEMBL1158338, “Synthesis of (+/-)Abyssinone I and related compounds: Their anti-oxidant and cytotoxic activities” (Eur J Med Chem, 2009).
Calls of active or inactive are those of the source.

Key:
[1] = Antioxidant activity assessed as ferric ion reducing activity at 200 ug after 20 mins by UV-visible spectrophotometry; format: functional
[2] = test system: Radical scavenging activity; assay: Antioxidant activity assessed as DPPH radical scavenging activity at 200 ug after 30 mins by UV-visible spectrophotometry; format: functional
MCF7 = assay: Cytotoxicity against human MCF7 cells at 25 to 150 uM after 72 hrs by MTT assay; format: functional, cell-based

Measured: Activity

CC1(C)C=Cc2cc(/C=C/C(=O)c3ccc(O)cc3O)ccc2O1
active: all assays above

O=C(/C=C/c1ccc(O)cc1)c1ccc(O)cc1O
active: all assays above

COc1ccc(C2CC(=O)c3ccc(O)cc3O2)cc1CC=C(C)C (centres undefined)
active: all assays above

COc1ccc(C2CC(=O)c3ccc(O)cc3O2)cc1 (centres undefined)
active: all assays above

CC1(C)C=Cc2cc(C3CC(=O)c4ccc(O)cc4O3)ccc2O1 (centres undefined)
active: all assays above

CC(C)=CCOc1ccc(/C=C/C(=O)c2ccc(O)cc2O)cc1
active: all assays above

O=C1C[C@@H](c2ccc(O)cc2)Oc2cc(O)ccc21
active: all assays above

CC(C)=CCc1cc(/C=C/C(=O)c2ccc(O)cc2O)ccc1O
active: all assays above

COc1ccc(/C=C/C(=O)c2ccc(O)cc2O)cc1CC=C(C)C
active: all assays above

CC(C)=CCc1cc(C2CC(=O)c3ccc(O)cc3O2)ccc1O (centres undefined)
active: all assays above

COc1ccc(/C=C/C(=O)c2ccc(O)cc2O)cc1
active: all assays above

CC1(C)CCc2cc(/C=C/C(=O)c3ccc(O)cc3O)ccc2O1
active: all assays above

CC1(C)CCc2cc(C3CC(=O)c4ccc(O)cc4O3)ccc2O1 (centres undefined)
active: all assays above
